Results: ChEMBL document CHEMBL1144129, “Isolation of xestosterol esters of brominated acetylenic fatty acids from the marine sponge xestospongia testudinaria” (J Nat Prod, 1999)

Biological target: T1, Adenosine receptor A1 (Rattus norvegicus, UniProt P25099)
T1 sequence (P25099 whole entry): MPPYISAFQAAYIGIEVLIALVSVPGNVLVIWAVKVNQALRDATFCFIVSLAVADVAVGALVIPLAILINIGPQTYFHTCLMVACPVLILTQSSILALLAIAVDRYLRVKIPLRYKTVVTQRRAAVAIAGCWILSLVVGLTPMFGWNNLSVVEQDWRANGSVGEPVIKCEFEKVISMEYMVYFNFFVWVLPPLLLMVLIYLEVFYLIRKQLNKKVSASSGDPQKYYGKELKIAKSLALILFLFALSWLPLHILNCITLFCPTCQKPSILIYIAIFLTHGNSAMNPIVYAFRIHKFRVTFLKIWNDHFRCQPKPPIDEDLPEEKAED
Test: Displacement of [3H]DPCPX from rat brain adenosine A1 receptor

## O=C(O)CCCCCC#C/C=C/CCCCC#C/C=C/Br
  IC50: 106 µM
